Assay results as given in US10231453B2, “5-substituted imidazole derivatives” (BAYER CROPSCIENCE AKTIENGESELLSCHAFT, priority 2015, dated 2019).

Tests used:
Septoria tritici = assay: In vivo preventive test on Septoria tritici (leaf spot on wheat), Examples E, Q3 and R5; details: Zymoseptoria tritici, 576 h, 500 ppm of active ingredient; wheat, preventive spray, evaluated 24 days after inoculation; read-out: efficacy
Uromyces appendiculatus = assay: In vivo preventive test on Uromyces appendiculatus (bean rust), Examples G and R7; details: 264 h, 500 ppm of active ingredient, bean, preventive spray, evaluated 11 days after inoculation, read-out: efficacy
Phakopsora pachyrhizi = assay: In vivo preventive Phakopsora test (soybeans), Example I; details: 168 h, 100 ppm of active ingredient, preventive spray, evaluated 7 days after inoculation, read-out: efficacy
Puccinia recondita = assay: In vivo preventive test on Puccinia recondita (brown rust on wheat), Examples C and R3; details: Puccinia recondita, 264 h; 500 ppm of active ingredient; wheat, preventive spray, evaluated 11 days after inoculation; read-out: efficacy
Botrytis cinerea = assay: In vivo preventive test on Botrytis cinerea (grey mould) on gherkin, Examples B, Q1 and R2; details: Botrytis cinerea, 500 ppm of active ingredient, preventive spray, evaluated 4 to 5 days after inoculation, read-out: efficacy
Alternaria solani = assay: In vivo preventive Alternaria test (tomatoes), Example H; details: 72 h, 100 ppm of active ingredient, preventive spray, evaluated 3 days after inoculation, read-out: efficacy
[1] = Measurement of LogP values by HPLC on reversed phase columns (EEC directive 79/831 Annex V.A8); assay type: physicochemical; details: method [a]: LC-UV, acidic range, 0.1% formic acid in water and acetonitrile as eluent; Table 1
Protocol: Measurement of Log P values was performed as outlined above.

Sphaerotheca fuliginea = assay: In vivo preventive test on Sphaerotheca fuliginea (powdery mildew on cucurbits), Examples F and R6; details: Podosphaera fuliginea, 360 h; 500 ppm of active ingredient; gherkin, preventive spray, evaluated 15 days after inoculation; read-out: efficacy
Pyrenophora teres = assay: In vivo preventive test on Pyrenophora teres (net blotch on barley), Examples D, Q2 and R4; details: Pyrenophora teres, 336 h, 500 ppm of active ingredient, preventive spray, evaluated 14 days after inoculation, read-out: efficacy
[2] = system: Blumeria graminis fsp. hordei; assay: In vivo preventive Blumeria test (barley), Example K; details: 168 h, 500 ppm of active ingredient, preventive spray, evaluated 7 days after inoculation, read-out: efficacy
Text: After the spray coating has been dried, the plants are dusted with spores of Blumeria graminis fsp. hordei.

Venturia inaequalis = assay: In vivo preventive Venturia test (apples), Example J; details: 240 h, read-out: efficacy
Protocol: After the spray coating has dried on, the plants are inoculated with an aqueous conidia suspension of the causal agent of apple scab (Venturia inaequalis) and then remain for 1 day in an incubation cabinet at approximately 20° C. and a relative atmospheric humidity of 100%.
The plants are then placed in a greenhouse at approximately 21° C. and a relative atmospheric humidity of approximately 90%.
The test is evaluated 10 days after the inoculation.

Pyricularia oryzae = assay: whole plant or invertebrate; assay type: in vivo; details: 192 h, read-out: efficacy
Alternaria brassicae = assay: In vivo preventive test on Alternaria brassicae (leaf spot on radish), Examples A and R1; details: Alternaria brassicae, 144 h, 500 ppm of active ingredient, preventive spray, evaluated 6 days after inoculation, read-out: efficacy
Fusarium graminearum = assay: whole plant or invertebrate; assay type: in vivo; details: in Hordeum vulgare, 120 h, read-out: efficacy

Row | SMILES | pest or weed control at 500 ppm (Septoria tritici) [%] | pest or weed control at 500 ppm (Uromyces appendiculatus) [%] | pest or weed control at 100 ppm (Phakopsora pachyrhizi) [%] | pest or weed control at 500 ppm (Puccinia recondita) [%] | pest or weed control at 500 ppm (Botrytis cinerea) [%] | pest or weed control at 100 ppm (Alternaria solani) [%] | chromatographic logP [1] | pest or weed control at 500 ppm (Sphaerotheca fuliginea) [%] | pest or weed control at 500 ppm (Pyrenophora teres) [%] | pest or weed control at 500 ppm [2] [%] | pest or weed control at 100 ppm (Venturia inaequalis) [%] | pest or weed control at 500 ppm (Pyricularia oryzae) [%] | pest or weed control at 500 ppm (Alternaria brassicae) [%] | pest or weed control at 500 ppm (Fusarium graminearum) [%]
1 | OC(Cn1cncc1Cl)(C(F)c1ccccc1Cl)C1(Cl)CC1 (stereo not drawn) [Example I-05] | 80 to 89 | 90 to 100 | 90 to 100 | 80 to 89 | 90 to 100 | 70 to 79 | 2.17 | 90 to 100 |  |  |  |  |  | 
2 | OC(Cc1cc(Cl)ncc1Cl)(Cn1cncc1Cl)C1(Cl)CC1 (stereo not drawn) [Example I-17] | 90 to 100 | 90 to 100 | 90 to 100 | 80 to 89 | 80 to 89 | 90 to 100 | 2.18 | 90 to 100 | 90 to 100 | 70 to 79 | 90 to 100 | 90 to 100 | 90 to 100 | 
3 | CSc1cncn1CC(O)(Cc1ccccc1Cl)C1(Cl)CC1 (stereo not drawn) [Example I-22] | 90 to 100 | 90 to 100 |  | 90 to 100 |  |  | 2.08 | 90 to 100 | 80 to 89 | 90 to 100 |  | 80 to 89 | 80 to 89 | 
4 | OC(Cn1cncc1Br)(C(F)c1ccccc1Cl)C1(Cl)CC1 (stereo not drawn) [Example I-23] | 90 to 100 | 90 to 100 | 90 to 100 | 90 to 100 |  |  | 2.32 | 90 to 100 | 80 to 89 |  |  |  | 80 to 89 | 
5 | OC(Cc1cccnc1Cl)(Cn1cncc1Br)C1(Cl)CC1 (stereo not drawn) [Example I-25] | 90 to 100 | 90 to 100 |  | 80 to 89 | 90 to 100 |  | 1.56 | 90 to 100 | 80 to 89 | 70 to 79 |  | 70 to 79 |  | 
6 | N#Cc1cncn1CC(O)(Cc1ccccc1Br)C1(Cl)CC1 (stereo not drawn) [Example I-40] | 90 to 100 | 90 to 100 | 90 to 100 | 80 to 89 | 90 to 100 | 90 to 100 |  | 90 to 100 | 70 to 79 | 90 to 100 | 80 to 89 | 70 to 79 | 80 to 89 | 
7 | OC(Cc1ccc(Br)cc1Cl)(Cn1cncc1Cl)C1(Cl)CC1 (stereo not drawn) [Example I-43] | 90 to 100 | 90 to 100 | 90 to 100 | 90 to 100 | 90 to 100 | 80 to 89 |  | 90 to 100 | 90 to 100 | 80 to 89 |  |  |  | 
8 | N#Cc1cncn1CC(O)(Cc1ccc(Cl)cc1)C1(Cl)CC1 (stereo not drawn) [Example I-64] | 90 to 100 | 90 to 100 |  | 90 to 100 |  |  | 3.1 | 90 to 100 |  | 90 to 100 |  |  |  | 80 to 89
9 | OC(Cc1ccc(Cl)cc1Cl)(Cn1cncc1Cl)C1(Cl)CC1 (stereo not drawn) [Example I-69] | 80 to 89 | 90 to 100 | 90 to 100 | 80 to 89 | 80 to 89 | 90 to 100 |  | 90 to 100 | 80 to 89 |  | 90 to 100 |  | 70 to 79 | 
10 | N#Cc1cncn1CC(O)(Cc1ccccc1Cl)CC1CC1 (stereo not drawn) [Example I-84] | 90 to 100 | 90 to 100 |  | 90 to 100 |  |  | 2.84 | 90 to 100 | 80 to 89 | 90 to 100 |  | 70 to 79 |  | 
